In US20230134843A1, “TREATMENT OF STEM CELL DEFICIENCY” (OSPEDALE SAN RAFFAELE S.R.L., priority 2020, published 2023):

System: CD45+ cells
Experiment: CD45+ inflammatory cell infiltration by immunohistochemistry, acute GVHD mouse model
Format: in vivo, mice
Settings: Fosaprepitant 10 mg/mL topically six times a day, day 29
Protocol: 10-week-old male BALB/C and C57BL/6N mice (Charles River Laboratory, Lecco, Italy) were used for all the experiments (n=5/each group). All mice were free from ocular surface disease at baseline. The housing conditions were controlled (temperature 22° C., light from 07:00-19:00, humidity 50%-60%), and fresh food and water were freely available. The animals were monitored 3 times per week for 28 days post-transplantation for in vivo slit-lamp microscopy imaging, ocular surface score and systemic GVHD score (FIG. 11A). Carbon dioxide inhalation and subsequent cervical dislocation were applied to euthanize the animals. All the experiments were approved by the Animal Care and Use Committee of the IRCCS San Raffaele Scientific Institute, in accordance with the ARVO Statement for the Use of Animals in Ophthalmic and Vision Research.
Allogenic BMT was conducted using the C57BL/6N and BALB/c mice as transplant donors and recipients, respectively. The recipient mice received total body irradiation (TBI) (900 cGy divided in two fractions) from a Cs source 1 day before the transplantation. The donor C57BL/6N mice were sacrificed on dry ice and they femur and spleen were harvested. The bones were gently crushed manually using a sterile stick, and bone marrow (BM) cells were released by mixing the fragments of bones with RPMI. The suspension of BM cells was filtered to remove the impurities inside. The spleens were also gently crushed into a cell suspension and filtered. Inventors suspended the BM cells and splenic cells with RPMI and adjusted the density of cells to 1×10^6/[…] and 2×10^6/[…], respectively. […]
Mice were sacrificed 28 days after BM transplantation (Day 29 post irradiation) by carbon dioxide inhalation. […] Following three washes with PBS-T, sections were incubated in anti-goat HRP for 15 minutes and then detected with a goat-on-rodent HRP-Polymer Kit (Biocare Medical). Primary antibody labeling was detected using brown DAB substrate (Vector Laboratories, Burlingame, Calif., USA). […]

Structure (SMILES): C[C@@H](O[C@H]1OCCN(Cc2nc(=O)n(P(=O)(O)O)[nH]2)[C@H]1c1ccc(F)cc1)c1cc(C(F)(F)F)cc(C(F)(F)F)c1 [Fosaprepitant, [3-{[(2R,3S)-2-[(1R)-1-[3,5-bis(trifluoromethyl)phenyl]ethoxy]-3-(4-fluorophenyl)morpholin-4-yl]methyl}-5-oxo-2H-1,2,4-triazol-1-yl]phosphonic acid]
- CD45+ cell infiltration in the lacrimal gland (among all groups): no significant difference
- CD45+ cell infiltration in the conjunctiva (p<0.0001): significantly reduced
- CD45+ cell infiltration in the cornea (p<0.01): significantly reduced
